Like-named read-outs stand apart in the source and are kept apart here.
Experiments:
PP1 = assay: Literature binding of GM constructs to PP1; conditions: GM 64–105 (KD 114 nM, ref 12) compared with the corresponding PTG peptide
PP1 7-330 = target: T1, PP1 7-330 (Homo sapiens, UniProt P62136); assay: GCI binding kinetics of PTG-derived peptides on captured PP1; conditions: 25 °C, 6xHis-PP1 7-330 captured on NTA chip, peptide 1:2 dilutions from 300 nM
T1 construct: reversibly capturing 6xHis-tagged PP1^7-330; host or cells: E. coli BL21 (DE3) pGro7
T1 sequence (P62136 7-330): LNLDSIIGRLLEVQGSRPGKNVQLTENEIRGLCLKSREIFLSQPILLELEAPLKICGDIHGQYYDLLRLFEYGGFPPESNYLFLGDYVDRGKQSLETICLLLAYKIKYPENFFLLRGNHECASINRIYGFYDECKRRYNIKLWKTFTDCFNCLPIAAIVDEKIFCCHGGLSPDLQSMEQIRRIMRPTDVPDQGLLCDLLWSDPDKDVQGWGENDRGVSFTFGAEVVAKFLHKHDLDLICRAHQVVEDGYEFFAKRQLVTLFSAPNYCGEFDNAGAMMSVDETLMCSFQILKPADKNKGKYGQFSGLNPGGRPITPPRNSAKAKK
Description: (§1) Grating-coupled interferometry (GCI) experiments were performed using the Creoptix WAVE system, a new generation instrument for the high-sensitivity kinetics and affinity analysis of label-free molecular interactions based on the waveguide interferometry technology. Waveguide interferometry exceeds the sensitivity levels of Surface Plasmon Resonance (SPR). […] GCI allows getting high resolution even at very low signal levels with low noise without artificial data averaging and reliable kinetics below 1 pg/mm^2. By the lower immobilization levels that are required, it avoids mass transport limitations. It covers the broadest kinetic range with the capability of analyzing of the ultra-fast transition times (i.e. 150 ms). It allows the reliable determination of off-rates of 5 s^–1 and even faster, enabling off-rate screening of weakly binding analytes. GCI can be applied to a wide range of pharmacological targets, with improved results on very low molecular weight compounds, to the dimensions of metal ions[56].
(§2) WAVE chips are composed of four channels or cells. Borate buffer (100 mM sodium borate pH 9.0, 1 M NaCl) was used for chip conditioning. […]
(§3) Supplementary Figure 3: Quantitative binding kinetics by GCI. […]

[1] = target: T2, PTG CBM21 (residues 132–264) (Homo sapiens, UniProt Q9UQK1); assay: ITC titration of PTG CBM21 with β-cyclodextrin; format: binding; conditions: 25 °C
T2 sequence (Q9UQK1 132-264): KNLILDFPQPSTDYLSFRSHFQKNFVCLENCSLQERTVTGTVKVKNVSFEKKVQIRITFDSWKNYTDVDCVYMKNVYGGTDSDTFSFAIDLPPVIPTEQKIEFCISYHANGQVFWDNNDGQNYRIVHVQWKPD
Description: ITC experiments were performed using an ITC 200 microcalorimeter (Malvern Panalytical, UK) at 25 °C with a stirring speed of 750 rpm in 25 mM Hepes pH 7.4, 0.2 M NaCl, 5% glycerol with 180 s separating the injections. β-cyclodextrin was dissolved in the running buffer and two datasets were collected, one with PTG CBM21 concentration at 100 μM and β-cyclodextrin at 3 mM with 40 injections of 1 µl, the other at 200 μM and 4 mM, respectively, with 80 injections of 1 µl. A blank run with only the buffer was carried out. Data analysis was done with ORIGIN subtracting the blank titrations fitting ‘one site’ and ‘two sites’ models.

R. oryzae CBM21 = conditions: cited from earlier work
Text: (§4) The same two sugar-binding sites have been identified in the crystal structures of Rhizopus oryzae CBM21[13],[14]; site II is the primary binding site, while site I has been hypothesized to contribute to the binding of long-chain soluble polysaccharides and insoluble starch or to the relaxation and unwinding of helical amylose[15],[16].

GM CBM21 = conditions: cited from earlier work
Text: as §4

PTG132-264 (CBM) = target: T3, PTG132-264 (CBM) (Homo sapiens, UniProt Q9UQK1); assay: GCI binding kinetics of β-cyclodextrin on immobilized PTG; conditions: 25 °C, 10 mM Hepes pH 7.2, 150 mM NaCl, 0.005% Tween 20, 1:3 dilutions from 500 µM
T3 sequence (Q9UQK1 132-264): T2 sequence (Q9UQK1 132-264)
Description: as §1, §2, §3

[2] = 'two sites' model with stoichiometry fixed, average of two runs
[3] = 'two sites' model, average of two runs
[4] = 'two sites' model, average of two separate runs

**Q.** For “GM peptide 64–105: GM (PPP1R3A) peptide 64–105, corresponding to PTG 84–131; literature comparator (VSFADSFGFNLVSVKEFDCWELPSASTTFDLGTDIFHTEEYV; UniProt Q16821 64-105, looked up, fragment)”, which “times weaker PP1 binding than measured for PTG” value (PP1) is on record?
**A.** The value was ~15 times.

**Q.** For “PTG81-132: extended PTG peptide, residues 81–132, including RVVF and SALK sequences; ProteoGenix SAS (AKKRVVFADSKGLSLTAIHVFSDLPEEPAWDLQFDLLDLNDISSALKHHEEK)”, which “KD by GCI for binding to PP1” value (PP1 7-330) is on record?
**A.** The value was “almost halved”.

**Q.** Which results are given for `OC[C@H]1O[C@@H]2O[C@H]3[C@H](O)[C@@H](O)[C@@H](O[C@H]4[C@H](O)[C@@H](O)[C@@H](O[C@H]5[C@H](O)[C@@H](O)[C@@H](O[C@H]6[C@H](O)[C@@H](O)[C@@H](O[C@H]7[C@H](O)[C@@H](O)[C@@H](O[C@H]8[C@H](O)[C@@H](O)[C@@H](O[C@H]1[C@H](O)[C@H]2O)O[C@@H]8CO)O[C@@H]7CO)O[C@@H]6CO)O[C@@H]5CO)O[C@@H]4CO)O[C@@H]3CO` [β-cyclodextrin]?
**A.** Kd ([1]; 25 mM Hepes pH 7.4, 0.2 M NaCl, 5% glycerol, 'one site' model, average of two separate runs, read-out: KD (KD1), 1 Site model): 59 ± 5 µM; ΔS1, 1 Site model ([1]; 'one site' model, average of two separate runs): -53 cal mol-1 K-1; N (stoichiometry), 1 Site model ([1]; 'one site' model, average of two separate runs, listed as b-cyclodextrin): 1.09; Kd ([1]; 'two sites' model with stoichiometry fixed (N 1.0 each site), average of two runs, read-out: KD1, 2 Sites fixed model, first site): 49 ± 4 µM; ΔH1, 2 Sites fixed model, first site [1, 2]: -24.6 ± 0.7 kcal/mol; ΔS1, 2 Sites fixed model, first site [1, 2]: -62 cal mol-1 K-1; ΔS2, 2 Sites fixed model, second site [1, 2]: 21 cal mol-1 K-1; Kd ([1]; 'two sites' model with stoichiometry fixed, average of two runs, spread ± 154, site spurious or ancillary, read-out: KD2, 2 Sites fixed model, second site): 346 µM; ΔH2, 2 Sites model, second site [1, 3]: -16 ± 2 kcal/mol; ΔS2, 2 Sites model, second site [1, 3]: -29 cal mol-1 K-1; N2, 2 Sites model, second site ([1]; 'two sites' model, average of two runs, paper calls second-site stoichiometry inconsistent): 0.3; Kd ([1]; 'two sites' model, average of two runs, second site judged inconsistent, read-out: KD2, 2 Sites model, second site): 3 ± 2 µM; N1, 2 Sites model, first site [1, 4]: 1.06; ΔH1, 2 Sites model, first site [1, 4]: -18 ± 4 kcal/mol; ΔS1, 2 Sites model, first site [1, 4]: -40 cal mol-1 K-1; Kd ([1]; 'two sites' model, average of two separate runs, read-out: KD1, 2 Sites model, first site): 63 ± 6 µM; Kd (R. oryzae CBM21): 5.1 µM; Kd (GM CBM21): 8.2 µM; Kd (PTG132-264 (CBM)): 37 ± 7 µM

Source: publication PMC9582199, “Molecular architecture of the glycogen- committed PP1/PTG holoenzyme” (Nature Communications, 2022)
